Measured values taken from patent publication US6949553B2, “Aliphatic compounds, their synthesis method, and utilization of the same” (Maruha Corporation, priority 2001, dated 2005).

Key:
platelets [1] = experiment: Collagen-induced in vitro platelet aggregation (rabbit PRP, transmittance); type: cell-based; conditions: Oryctolagus cuniculus, Platelet, read-out: 50% Inhibition Point for Platelet Aggregation, IC50
Method: Collagen-induced in vitro Platelet Aggregation
It was studied whether the compounds of the present invention would inhibit platelet aggregation induced by collagen.
These compounds were each diluted with physiological saline to end concentrations of 1×10^−7M, 3×10^−7M, 1×10^−6M, 3×10^−6M, 1×10^−5M, 3×10^−5M and 1×10^−4M.
Indomethacin was used as a positive control. Indomethacin was dissolved in methanol, and then diluted with physiological saline to end concentrations of 1×10^−6M, 3×10^−6M and 1×10^−5M.
Physiological saline was used as a negative control.
The tube was centrifuged at 900 rpm for 10 minutes at room temperature to separate the supernatant (PRP, platelet rich plasma fraction). The residue was further centrifuged for 15 minutes at 2,500 rpm to obtain the supernatant (PPP, platelet poor plasma fraction).
PPP (platelet poor plasma fraction) was placed in a cuvette, and the cuvette was mounted in a 37° C. incubator for PPP of an aggregometer (Hematracer 240 12ch, manufactured by MCM). Then, 200 μl of PRP (platelet rich plasma fraction) was added into a cuvette, and the cuvette was mounted in a reactor for PRP. With stirring by a magnetic stirrer, the transmittance of PPP was corrected to T650 nm=100%, and the transmittance of PRP was corrected to T650 nm=0%, by automatic adjustment for 30 seconds.
The study substance (20 μl) at a predetermined concentration was added into the cuvette and, 30 seconds later, 20 μl (end concentration 0.2 μg/ml) of collagen (produced by MCM) was added. Subsequent changes in the transmittance were recorded for 5 minutes. When the platelets are aggregated, the transmittance increases. When aggregation peaked, the transmittance T at maximum aggregation was compared with the transmittance T0 of the negative control, and the aggregation inhibition rate was expressed as percentage using the following equation: Aggregation inhibition rate=(1−T/T0)×100
From an aggregation inhibition curve obtained, a regression equation was derived by approximation of the linear type.

platelets [2] = experiment: In vitro platelet aggregation by various inducers, rat platelets; type: cell-based; conditions: Rattus norvegicus
Source text: Next, the suppression of platelet aggregation by the compounds of the present invention was studied in the same manner as described above with the use of not only collagen, but also arachidonic acid, ADP, thrombin, serotonin, epinephrine and U46619 (pseudo-thromboxane A2 substance) as inducers.
As platelets, platelets prepared from rats and guinea pigs as well as rabbits were also used.
Collagen and ADP were purchased from MCM, and used in accordance with the method of preparation described in the manuals attached to the purchased products. Serotonin, epinephrine and thrombin were purchased from Sigma, and used as solutions in physiological saline for injection (Otsuka Pharmaceutical Factory). Arachidonic acid was purchased from Cayman, and dispersed in physiological saline for injection (Otsuka Pharmaceutical Factory) with the use of an immersion type ultrasonic oscillator (US150, NIPPON SEIKI, tip end diameter ca. 3.5 mm). U46619 (pseudo-thromboxane substance) was purchased from FUNAKOSHI, and dissolved in physiological saline for injection (Otsuka Pharmaceutical Factory) when used.
Collagen (0.1 to 1 μg/ml), arachidonic acid (1 mM), ADP (1 μM), thrombin (1 U/ml), serotonin (100 μM), epinephrine (100 to 200 μM), and U46619 (3 μM) were used.
Indomethacin was used as a positive control for measuring the suppression of platelet aggregation induced by collagen.

[3] = system: neutrophils and vascular endothelial cells; experiment: Pseudo-blood vessel in vitro inflammation model (TNFα, neutrophil migration through endothelial cell layer); type: cell-based, bovine; conditions: 30, 3 or 0.3 μM, TNFα 50 ng/ml
Method: A layer of bovine endothelial cells was adhered to the bottom surface of the membrane, and cultured for 80 minutes at 37° C. in 5% CO2. Then, a suspension of fluorescence-labeled neutrophils was added to the upper chamber of the transwell. Simultaneously, TNFα was suspended in the cell suspension in the upper chamber to an end concentration of 50, 25 or 17 ng/ml.
That is, in the above model, the phenomena that neutrophils pass from the upper chamber through the vascular endothelial cell layer into the lower chamber, and neutrophils adhere to the endothelial cell layer mimic a state where in response to TNFα within the blood vessel, neutrophils migrate from within the blood vessel to the site of inflammation.
In the same manner as described above, the number of neutrophils passing from the upper chamber through the vascular endothelial cell layer into the lower chamber, and the number of neutrophils adhering to the endothelial cell layer were measured. Based on these numbers, the neutrophil migration rate (%) was calculated. The neutrophil migration rate was expressed as the relative value (%) of the number of the migrating neutrophils in the drug treatment group with respect to the number of the migrating neutrophils in the negative control group (physiological saline).

[4] = system: vascular smooth muscle cells; experiment: Synthetic type vascular smooth muscle cell proliferation (PDGF, BrdU assay); type: cell-based, rat; conditions: 0.3 to 3 μM with PDGF 50 ng/ml, 24 hours
Method: The effect of the study substance on vascular smooth muscle cell proliferation was studied.
Thus, the effect of Compound 2 on the cell proliferation of vascular smooth muscle cells was measured in the following manner:
The rat carotid arterial tunica intima was rubbed by ballooning, and vascular smooth muscle cells were prepared by explant culture. Two weeks later, these cells were cultured in a DMEM culture medium (Gibco) containing 10% fetal bovine serum. The cultures were subcultured several times for stabilization, and then planted at a cell density of 5×10^3 cells/cm^2 for use in experiments. Compound 2 in combination with 50 ng/ml of the growth factor PDGF (Sigma) was added to the above planted cells and, 24 hours later, the cell density was measured by BrdU assay (Science '82, 218, p. 474, Cytometry '85, 6, p. 584). The cell density in the absence of the drug was measured as a control.
Relative smooth muscle cell count (%)=[cell count in the experimental group]/[cell count in the control]×100.

Q: With `CC/C=C\C/C=C\C/C=C\C/C=C\C/C=C\C/C=C\CCC(=O)NCCC1CCCN1C` (racemic) [Compound 2, (4Z,7Z,10Z,13Z,16Z,19Z)-N-[2-(1-methylpyrrolidin-2-yl)ethyl]docosahexaenoamide] as the compound, how does the IC50 (platelets [1]) read?
A: 1.5 µM

Q: And the IC50 (platelets [2]; read-out: 50% aggregation inhibition point, collagen-induced aggregation, rat platelets)?
A: ~11 µM

Q: And the IC50 (platelets [2]; read-out: 50% inhibition point, IC50, for in vitro platelet aggregation, inducer ADP (1 μM), rat platelets)?
A: > 100 µM

Q: What about the IC50 (platelets [2]; read-out: 50% inhibition point, IC50, for in vitro platelet aggregation, inducer collagen (0.1 to 1 μg/ml), rat platelets) of the same compound?
A: 11 ± 7 µM

Q: And the “neutrophil passage through vascular endothelial cell layer (in words)” value [3]?
A: suppressed neutrophil passage dose-dependently

Q: What about the “vascular smooth muscle cell proliferation (in words)” value [4] of the same compound?
A: suppress vascular smooth muscle cell proliferation concentration-dependently
